Here are results for four compounds from patent US20100063006A1, “COMPOSITIONS AND METHODS TO REDUCE FAT AND RETRACT SKIN” (American Network of Lipolysis, LLC, priority 2006, published 2010).

Where a name gives a salt, the structure may show the parent alone.

For data set [1] the following is noted: nausea, vomiting, diarrhea, flushing, sweating, bradycardia; cited from earlier work.
Data set [2] deals with cultured human adipocytes. Kind of data set: In vitro lipolysis assays (basal lipolysis rate, triglyceride detection) in cultured human adipocytes. The format is cell-based. The following applies: adipocytes incubated 12-14 hours in test composition; FIG. 8. Here is the method:
Lipolysis induced in cultured human adipocytes by certain embodiments of the inventive injectable compositions for fat reduction and their constituent components was assayed in vitro under controlled conditions.
Cells utilized for the in vitro assays were obtained from five different dermolipectomy specimens. Preadipocytes were cultured in differentiation media over 14 days to produce adipocytes incubated between 12-14 hours in each of 12 test solutions. Each of the cell lines incubated in each of the 12 test solutions were split and introduced into four in vitro assays.
Cell lines were incubated in each of the following compositions: • 1. Phosphatidylcholine 25.6 milligrams per milliliter (mg/mL)/Deoxycholate 24.8 mg/mL, Benzyl Alcohol 25.6 mg/mL, ISUPREL 8 mg/mL, and Ropivacaine 5 mg/mL. • 2. Phosphatidylcholine 24.0 mg/mL/Deoxycholate 19.8 mg/mL, Benzyl Alcohol 25.6 mg/mL, ISUPREL 8 mg/mL, and Ropivacaine 5 mg/mL. • 3. Phosphatidylcholine 50.0 mg/mL/Deoxycholate 42.0 mg/mL. • 4. Deoxycholate 10.0 mg/mL. • 5. Phosphatidylcholine 45.0 mg/mL/Deoxycholate 42.0 mg/mL. • 6. Phosphatidylcholine 53.0 mg/mL/Deoxycholate 42.0 mg/mL. • 7. Phosphatidylcholine 50 mg/mL in mineral oil. • 8. Deoxycholate 24.8 mg/mL. • 9. Benzyl alcohol 25.6 mg/mL. • 10. ISUPREL 8.0 mg/mL. • 11. Ropivacaine 5.0 mg/mL. • 12. Vitamin B complex and pentoxyffline • 13. Control--Saline Solution. […]
B. Basal Lipolysis Rate. Free lipid in collected supernatant was quantified using a Lipolyis assay available from Zan-Bio, Catalog No. LIP-1 to measure released glycerol. […] The quinoneimine dye has an absorbance maximum at 540 nanometers. The increase in absorbance at 540 nanometers is directly proportionate to glycerol concentration in the supernatant.
D. Triglyceride Detection. The amount of triglyceride was quantified by measurement of glycerol released by cell lysis into the supernatant utilizing a triglyceride assay kit available from Zen-Bio, Catalog No. TG-1-NC. There is a molar equivalent of triglyceride for each mole of glycerol detected.

Turning to phosphatidylcholine [PC], in data set [1], the “total administered amount of PC above which cholinergic side effects occur” value is recorded as “exceeds 2000 mg per treatment”.
As for `CC(C)NCC(O)c1ccc(O)c(O)c1` (stereo not shown) [Test composition no. 10, isoproterenol hydrochloride], the “lipolytic action (free lipids) compared with the saline control” value in data set [2] is recorded as “do not appear to have lipolytic action greater than the control”.
The same measure, in the same setting: for `CCCN1CCCC[C@H]1C(=O)Nc1c(C)cccc1C` [Test composition no. 11, Ropivacaine] the value was “do not appear to have lipolytic action greater than the control”.
Consider `OCc1ccccc1` [Test composition no. 9, Benzyl alcohol], for which the “lipolytic action (free lipids) compared with the saline control” value in data set [2] was “do not appear to have lipolytic action greater than the control”.
